A word on the inhibition: it is how much of the control response was suppressed. A word on the melting point: it is the temperature, or range, at which the solid turns liquid. What is called solubility is the concentration that dissolves in the medium under given conditions. A low value points to a poorly soluble substance. One may read the pIC50 as the IC50 on a negative log10 scale, so that one unit is a factor of ten. A higher pIC50 goes with a low IC50.

From paper PMC8725971, “Polycyclic nitrogen heterocycles as potential thymidine phosphorylase inhibitors: synthesis, biological evaluation, and molecular docking study” (Journal of Enzyme Inhibition and Medicinal Chemistry, 2021) come the findings set out here.

pIC50: −log10 of the molar value. Converted amounts (≈) assume the structure as drawn. Structures can show the parent of a compound that is named as a salt. A value given as a limit tells only on which side of the number the result lay.

One data set has as its target T1, E. coli TP (Escherichia coli, UniProt P07650).
T1 construct: purchased Sigma Aldrich T2807-1KU
As to the kind of experiment: In vitro E. coli thymidine phosphorylase inhibition, spectrophotometric assay at 290 nm. The format is biochemical. The settings on record: for inhibition at 30 µM: read-out: TP inhibition (%) at maximum solubility (30 µM); for inhibition at 25 µM: compound at 25 µM (maximum solubility); for inhibition at 15 µM: compound at 15 µM (maximum solubility). As for the experimental part:
The adopted protocol is a modification of the original method developed by Khan[51]. TP activity and inhibition assays were based on the phosphorolysis of thymidine to thymine, this conversion results in a significant spectrophotometric decrease. At 290 nm and pH 7.4, thymidine has a higher extinction coefficient than thymine (Δε = −480 M^−1 cm^−1). The absorbance at 290 nm was measured every 2 min for 30 min in 96-well plates at 25 °C.
Thymidine was dissolved in buffer (3 mM). […] All experiments were conducted in triplicate.
The method reported by Khan et al.[51] has been adapted to a screening in 96-well plates (200 µL well, UV-Star® 96-well microplate, Greiner). Each well contained 160 µL of 50 mM KH2PO4 buffer (pH 7.4), 0.006 U of E. coli TP (T2807-1KU, Sigma Aldrich), and 20 µL of the tested compound solution. […] The decrease in absorbance due to conversion of thymidine to thymine was followed during 30 min (PowerWave HT Microplate Reader, Biotek) at 25 °C, with one measure every 2 min and a 30 s shaking before each measure.

A short description of data set [1]: Solubility in the incubation medium. The settings on record: for solubility: aqueous buffer, kinetic from dmso stock; for Solubility (in words): incubation medium.
[2] abbreviates: compound at 50 µM, 2.5% DMSO, average of three measurements.

T1 sequence (P07650 whole entry): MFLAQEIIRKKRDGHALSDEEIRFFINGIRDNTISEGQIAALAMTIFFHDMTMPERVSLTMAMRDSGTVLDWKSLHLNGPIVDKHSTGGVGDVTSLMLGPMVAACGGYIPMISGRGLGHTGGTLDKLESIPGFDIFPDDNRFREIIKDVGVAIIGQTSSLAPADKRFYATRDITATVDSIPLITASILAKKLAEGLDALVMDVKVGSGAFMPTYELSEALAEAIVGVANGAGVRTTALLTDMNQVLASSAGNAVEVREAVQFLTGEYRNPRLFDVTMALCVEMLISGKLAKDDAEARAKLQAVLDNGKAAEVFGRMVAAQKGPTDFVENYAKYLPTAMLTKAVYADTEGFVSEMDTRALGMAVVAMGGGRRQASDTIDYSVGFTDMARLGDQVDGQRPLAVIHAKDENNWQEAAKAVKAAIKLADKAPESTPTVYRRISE

Compound `O=C1c2cc3c(=O)[nH]c(=O)[nH]c3nc2C(=O)N1CCc1ccccc1` [Compound 28e, 7-Phenylethyl-1H-pyrrolo[3′,4′:5,6]pyrido[2,3-d]pyrimidine-2,4,6,8(3H,7H)-tetraone] showed a melting point of 359 to 361 °C. The compound further came in with an inhibition at 50 µM on E. coli TP (setting [2]) of 0%.
In turn, `O=c1[nH]c(=O)c2cc3c(ccc4ccccc43)nc2[nH]1` [Compound 2m] showed an inhibition at 50 µM at E. coli TP (setting [2]) of 29%.
Regarding `O=C1c2cc3c(=O)[nH]c(=O)[nH]c3nc2C(=O)N1CC1CCCCC1` [Compound 28g], the inhibition at 30 µM at E. coli TP turned out to be 0%. Further, in data set [1], the concentration in solution (solubility) came to 30 µM (≈ 9.85 µg/mL).
With `O=C1c2cc3cc4c(cc3nc2C(=O)N1Cc1[nH]c(=O)[nH]c(=O)c1I)OCO4` [Compound 23c, 2-[(5-Iodo-2,6-dioxo-1,2,3,6-tetrahydropyrimidin-4-yl)methyl]-6,7-methylenedioxy-1H-pyrrolo[3,4-b]quinoline-1,3(2H)-dione], the melting point was 365 to 367 °C (dec.). This compound also gave an inhibition at 50 µM against E. coli TP (setting [2]) of 0%.
In turn, `O=c1[nH]c(=O)c2cc3ccc4cc5ccccc5cc4c3nc2[nH]1` [Compound 2o, Naphto[2,3-h]pyrimido[4,5-b]quinoline-2,4(1H,3H)-dione] showed a melting point greater than 360 °C. The compound also displayed an inhibition at 25 µM on E. coli TP (2.5% DMSO) of 0%. Further, in data set [1], the concentration in solution (solubility) was 25 µM (≈ 7.83 µg/mL) and the “Solubility (in words)” value is recorded as “less soluble”.
As for `O=C1c2cc3c(=O)[nH]c(=O)[nH]c3nc2C(=O)N1Cc1ccc(Cl)cc1Cl` [Compound 28d], the inhibition at 30 µM at E. coli TP was 0%. Also, the solubility in data set [1] came to 30 µM (≈ 11.7 µg/mL).
`O=C1c2cc3cc4c(cc3nc2C(=O)N1CCCCCCn1cc(Br)c(=O)[nH]c1=O)OCO4` [Compound 16b, 2-[6-(5-Bromo-2,4-dioxo-3,4-dihydropyrimidine-1(2H)-yl)hexyl]-6,7-methylenedioxy-2H-pyrrolo[3,4-b]quinoline-1,3-dione] yielded a melting point of 282 to 283 °C. At E. coli TP (compound at 12.5 µM (maximum solubility), 2.5% DMSO), this compound displayed an inhibition at 12.5 µM of 30%. For the same compound, in data set [1], the solubility came to 12.5 µM (≈ 6.44 µg/mL) and the “Solubility (in words)” value is recorded as “less soluble”.
Compound `O=c1[nH]c(=O)c2cc[nH]c2[nH]1` [Compound 7-DX, 7-Deazaxanthine, reference compound] showed an inhibition at 50 µM on E. coli TP (setting [2]) of 60%.
As for `Cc1cn(CCCCN2C(=O)c3cc4cc5c(cc4nc3C2=O)OCO5)c(=O)[nH]c1=O` [Compound 13a, 2-[4-(2,4-Dioxo-5-methyl-3,4-dihydropyrimidine-1(2H)-yl)butyl]-6,7-methylenedioxy-2H-pyrrolo[3,4-b]quinoline-1,3-dione], the melting point stood at 302 °C. For the same compound, testing at 50 µM against E. coli TP (setting [2]) gave an inhibition of 25%.
At E. coli TP (setting [2]), `O=c1[nH]c(=O)c2cc3ccc(OCc4ccccc4)cc3nc2[nH]1` [Compound 2f] returned an inhibition at 50 µM of 0%. In addition, the concentration in solution in data set [1] (solubility) was 50 µM (≈ 16 µg/mL).
Consider `O=c1[nH]c(=O)c2cc3ccc4ccccc4c3nc2[nH]1` [Compound 2n, Benzo[h]pyrimido[4,5-b]quinoline-8,10(9H,11H)-dione)], for which the melting point was 326 to 328 °C. On E. coli TP (2.5% DMSO), this compound had an inhibition at 15 µM of 0%. In data set [1], the concentration in solution (solubility) was 15 µM (≈ 3.95 µg/mL) and the “Solubility (in words)” value is listed as “less soluble”.
`O=C1c2cc3cc4c(cc3nc2C(=O)N1Cc1ccccc1)OCO4` [Compound 24, 6,7-Methylenedioxy-2-benzylpyrrolo[3,4-b]quinoline-1,3-dione] came in with a melting point of 191 to 193 °C. This compound also gave an inhibition at 50 µM at E. coli TP (setting [2]) of 20%.
For `CN(C)c1c2cc3c(cc2nc2[nH]c(=O)[nH]c(=O)c12)OCO3` [Compound 2s, 5-Dimethylamino-7,8-methylenedioxypyrimido[4,5-b]quinoline-2,4(1H,3H)-dione], the melting point amounted to 348 °C. The same compound showed an inhibition at 15 µM against E. coli TP (2.5% DMSO) of 0%. This compound yielded a solubility in data set [1] of 15 µM (≈ 4.5 µg/mL).
As for `O=C1c2cc3cc4c(cc3nc2C(=O)N1Cc1[nH]c(=O)[nH]c(=O)c1Cl)OCO4` [Compound 23a, 2-[(5-Chloro-2,6-dioxo-1,2,3,6-tetrahydropyrimidin-4-yl)methyl]-6,7-methylenedioxy-1H-pyrrolo[3,4-b]quinoline-1,3(2H)-dione], the melting point was 352 to 354 °C (dec.). The compound also displayed an inhibition at 50 µM against E. coli TP (setting [2]) of 0%.
For `O=C1c2cc3c(=O)[nH]c(=O)[nH]c3nc2C(=O)N1Cc1cccnc1` [Compound 28f, 7-(Pyridin-3-ylmethyl)-1H-pyrrolo[3′,4′:5,6]pyrido[2,3-d]pyrimidine-2,4,6,8(3H,7H)-tetraone] the same measures were greater than 360 °C and 0%.
Take `O=C1c2cc3cc4c(cc3nc2C(=O)N1CCCCn1cc(Br)c(=O)[nH]c1=O)OCO4` [Compound 16a, 2-[4-(5-Bromo-2,4-dioxo-3,4-dihydropyrimidine-1(2H)-yl)butyl]-6,7-methylenedioxy-2H-pyrrolo[3,4-b]quinoline-1,3-dione]: the melting point is 276 °C. Besides, the inhibition at 25 µM at E. coli TP (2.5% DMSO) was determined as 30%. Besides, in data set [1], the solubility was found to be 25 µM (≈ 12.2 µg/mL) and the “Solubility (in words)” value is listed as “less soluble”.
`Cc1ccc2nc3[nH]c(=O)[nH]c(=O)c3cc2c1` [Compound 2a] came in with an inhibition at 50 µM at E. coli TP (setting [2]) of 0%.
Same read-out and setting: then `O=c1[nH]c(=O)c2cc3ccc(C(F)(F)F)cc3nc2[nH]1` [Compound 2k], with 0%.
As for `COc1cc2nc3[nH]c(=O)[nH]c(=O)c3cc2c(OC)c1OC` [Compound 2h], 15 µM produced 0% inhibition against E. coli TP (2.5% DMSO). Besides, in data set [1], the concentration in solution (solubility) came to 15 µM (≈ 4.55 µg/mL) and the “Solubility (in words)” value was “sparingly soluble”.
At E. coli TP (setting [2]), `O=c1[nH]c(=O)c2cc3ccc(Cl)cc3nc2[nH]1` [Compound 2j] displayed an inhibition at 50 µM of 0%. Besides, the solubility in data set [1] amounted to 50 µM (≈ 12.4 µg/mL).
In turn, `COc1ccc(CN2C(=O)c3cc4c(=O)[nH]c(=O)[nH]c4nc3C2=O)c(OC)c1` [Compound 28b] returned an inhibition at 50 µM at E. coli TP (setting [2]) of 0%.
On E. coli TP (setting [2]), `Cc1c2cc3c(cc2nc2[nH]c(=O)[nH]c(=O)c12)OCO3` [Compound 2q] yielded an inhibition at 50 µM of 0%.
On the same count and under the same terms, the same measure for `Cc1cccc2cc3c(=O)[nH]c(=O)[nH]c3nc12` [Compound 2c]: 14%.
As to `COc1cc(-c2c3cc4c(cc3nc3[nH]c(=O)[nH]c(=O)c23)OCO4)cc(OC)c1OC` [Compound 2r], on E. coli TP (2.5% DMSO), 25 µM produced 0% inhibition. This compound had a solubility in data set [1] of 25 µM (≈ 10.6 µg/mL).
Compound `O=c1[nH]c(=O)c2cc3cc(Cl)c(Cl)cc3nc2[nH]1` [Compound 2l, 7,8-Dichloropyrimido[4,5-b]quinoline-2,4(1H,3H)-dione] had a melting point greater than 360 °C. Besides, at E. coli TP (300 µM thymidine, pH 7.4, 25 °C), the pIC50 is 4.38. Moreover, the inhibition at 50 µM on E. coli TP (setting [2]) came out at 71%. Moreover, in data set [1], the solubility was greater than 50 µM.
For `O=C1c2cc3cc4c(cc3nc2C(=O)N1Cc1cc(=O)[nH]c(=O)[nH]1)OCO4` [Compound 22, 2-[(2,6-Dioxo-1,2,3,6-tetrahydropyrimidin-4-yl)methyl]-6,7-methylenedioxy-1H-pyrrolo[3,4-b]quinoline-1,3(2H)-dione], the melting point was 407 to 409 °C (dec.). On E. coli TP (2.5% DMSO), this compound showed an inhibition at 15 µM of 25%. For the same compound, in data set [1], the solubility is 15 µM (≈ 5.49 µg/mL) and the “Solubility (in words)” value is “less soluble”.
Turning to `O=c1[nH]c(=O)c2cc3ccc(Oc4ccccc4)cc3nc2[nH]1` [Compound 2e, 8-Phenoxypyrimido[4,5-b]quinoline-2,4(1H,3H)-dione], the melting point was 334 to 336 °C (dec.). Further, testing at 50 µM against E. coli TP (setting [2]) gave an inhibition of 30%. Besides, in data set [1], the concentration in solution (solubility) was 50 µM (≈ 15.3 µg/mL).
Regarding `CCC(CCCn1c(=O)c(Br)cn(C(CC)CCCN2C(=O)c3cc4cc5c(cc4nc3C2=O)OCO5)c1=O)n1cc(Br)c(=O)[nH]c1=O` (centres unmarked) [Compound 17, 2-[4-[5-Bromo-3-[4-(5-bromo-2,4-dioxo-3,4-dihydropyrimidine-1(2H)-yl)hexyl]-2,4-dioxo-3,4-dihydropyrimidine-1(2H)-yl]hexyl]-6,7-méthylènedioxy-2H-pyrrolo[3,4-b]quinoline-1,3-dione], the melting point fell in the range of 144 to 148 °C.
The same measure, in the same setting: the same measure for `CN(C)CCCN1C(=O)c2cc3c(=O)[nH]c(=O)[nH]c3nc2C1=O` (as salt: hydrochloride) [Compound 28h, 7-(3-(Dimethylamino)propyl)-1H-pyrrolo[3′,4′:5,6]pyrido [2,3-d]pyrimidine-2,4,6,8 (3H,7H)-tetraone, hydrochloride]: 309 to 311 °C.
Regarding “2-[4-(2,4-Dioxo-5-methyl-3,4-dihydropyrimidine-1(2H)-yl)hexyl]-6,7-methylenedioxy-2H-pyrrolo[3,4-b]quinoline-1,3-dione [Compound 13b]”, the “TP inhibition (%) at 50 µM” value at E. coli TP (setting [2]) is on record as 0% at 50 µM.
On E. coli TP (setting [2]), `CN(C)CCCN1C(=O)c2cc3c(=O)[nH]c(=O)[nH]c3nc2C1=O` [Compound 28h, 7-(3-(Dimethylamino)propyl)-1H-pyrrolo[3′,4′:5,6]pyrido [2,3-d]pyrimidine-2,4,6,8 (3H,7H)-tetraone, hydrochloride] came in with an inhibition at 50 µM of 0%.
The same measure, in the same setting: then `Cc1ccc2cc3c(=O)[nH]c(=O)[nH]c3nc2c1` [Compound 2b], with 0%.
On the same count and under the same terms, then `O=C1NC(=O)c2nc3[nH]c(=O)[nH]c(=O)c3cc21` [Compound 27], with 0%.
